Data on ten molecules can be found in patent publication US10415054B2, “Designer circuit controlling diet-induced obesity” (ETH ZURICH, priority 2013, dated 2019).

The target of assay [1] is T1, lipid-sensing receptor (LSR; TtgR-PPARα) (UniProt Q07869+Q9AIU0).
T1 construct: TtgR (phloretin-responsive repressor of Pseudomonas putida DOT-T1E); expressed in transfected cells; host or cells: HT-1080 (A1, A5; in A5 microencapsulated and implanted into mice); several rodent, primate and human cell lines (A2)
T1 sequence (Q9AIU0+Q07869 with tags, fused parts or gaps): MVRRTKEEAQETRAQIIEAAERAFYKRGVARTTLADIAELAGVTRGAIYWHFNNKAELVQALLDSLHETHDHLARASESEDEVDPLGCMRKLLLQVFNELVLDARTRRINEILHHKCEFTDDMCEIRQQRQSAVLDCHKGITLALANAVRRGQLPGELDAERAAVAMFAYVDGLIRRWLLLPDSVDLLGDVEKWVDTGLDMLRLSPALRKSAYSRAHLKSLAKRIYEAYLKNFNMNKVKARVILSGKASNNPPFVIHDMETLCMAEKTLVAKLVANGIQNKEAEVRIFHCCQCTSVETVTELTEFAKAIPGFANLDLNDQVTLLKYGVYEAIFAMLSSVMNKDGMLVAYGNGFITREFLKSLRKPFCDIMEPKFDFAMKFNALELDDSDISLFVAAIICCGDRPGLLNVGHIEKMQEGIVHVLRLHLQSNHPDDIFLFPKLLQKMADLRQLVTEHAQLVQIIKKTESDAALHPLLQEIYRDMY
Put plainly: Fatty acid/fibrate-controlled SEAP expression in pKR135/pMG10-transgenic HT-1080. It counts as cell-based, human. As to conditions: for sensitivity of LSR (SEAP expression): pKR135/pMG10-transgenic HT-1080, 48 h, FIG. 3d,e. As to the method:
Wild-type Chinese hamster ovary cells (CHO-K1, ATCC: CCL-61) were cultured in ChoMaster® HTS (Cell Culture Technologies GmbH, Gravesano, Switzerland) containing 1% penicillin/streptomycin. All cell types were cultivated at 37° C. in a humidified atmosphere containing 5% CO2. […] After transfection, all cells were cultivated in their specific media containing different inducer concentrations and reporter protein levels were profiled after 48 h unless stated otherwise. […]

The target of a further assay is T2, LSR sensor device (UniProt Q07869+Q9AIU0).
T2 construct: TtgR (phloretin-responsive repressor of Pseudomonas putida DOT-T1E); expressed in transfected cells; host or cells: HT-1080 (A1, A5; in A5 microencapsulated and implanted into mice); several rodent, primate and human cell lines (A2)
T2 sequence (Q9AIU0+Q07869 with tags, fused parts or gaps): T1 sequence (Q9AIU0+Q07869 with tags, fused parts or gaps)
The assay can be described thus: Serum SEAP in wild type mice implanted with microencapsulated pKR135/pMG10-transgenic HT-1080. It counts as in vivo. As to conditions: wild type mice on standard diet, 48 h, FIG. 4a,b. An excerpt:
(a-d) Standard low fat-fed wild type mice were implanted with microencapsulated pKR135-/pMG10-transgenic HT-1080 (2×10^6 cells/mouse) and received different doses of linoleic acid (LA) and palmitic acid (PA) (fatty acids, FA) (a), rapeseed oil (RO) (b) or were put on standard low fat (LF, 5 kcal % fat), medium fat (MF, 10 kcal % fat) and high fat (HF, 60 kcal % fat) diets (D) (c, d). Resulting blood SEAP (bSEAP) levels (a, b, d) and blood fat levels (BF) represented by serum cholesterol (C) and phospholipid (PL) concentrations (c) were quantified after 48 h (a, b, d) or 72 h (c). Data are mean±SEM, statistics by two-tailed t test; n=8 mice. *P<0.05, **P<0.005, ***P<0.0001 vs. zero lipid doses (a,b) or LF mice (c,d).
Production of the human placental secreted alkaline phosphatase (SEAP) in culture was quantified according to a p-nitrophenylphosphate-based time course of light absorbance (Schlatter S. et al., Gene 282, 19-31 (2002)). Serum levels of SEAP were quantified using a chemiluminescence-based assay (Roche Diagnostics GmbH, Mannheim, Germany). […]

The target in assay [2] is T1, lipid-sensing receptor (LSR; TtgR-PPARα). The assay can be described thus: Linoleic acid-induced SEAP expression in different cell lines cotransfected with pKR135/pMG10. It counts as cell-based. As to conditions: several rodent, primate and human cell lines, 48 h, FIG. 2. As to the method:
Linoleic acid-induced SEAP expression in different cell lines. Cells were cotransfected with the LSR-encoding expression vector (pKR135; PhCMV-LSR-pA) and the PTtgR1-driven SEAP expression plasmid (pMG10; […]), grown in the presence of different linoleic acid (LA) concentrations, and SEAP levels were profiled in the culture supernatant after 48 h.
(§1) Human embryonic kidney cells (HEK-293T, ATCC: CRL-11268), Baby hamster kidney cells (BHK-21, ATCC: CCL-10), African green monkey kidney cells (COS-7, ATCC: CRL-1651), human cervical adenocarcinoma cells (HeLa, ATCC: CCL-2), human fibrosarcoma cells (HT-1080, ATCC: CCL-121) and immortalized human mesenchymal stem cells (hMSC) (Simonsen, J. L. et al., Nat Biotechnol 20, 592-596 (2002)) were cultivated in Dulbecco's modified Eagle's medium (DMEM; Invitrogen, Basel, Switzerland) supplemented with 1% (v/v) penicillin/streptomycin solution (Sigma-Aldrich, Munich, Germany). […]
(§2) Production of the human placental secreted alkaline phosphatase (SEAP) in culture was quantified according to a p-nitrophenylphosphate-based time course of light absorbance (Schlatter S. et al., Gene 282, 19-31 (2002)). Serum levels of SEAP were quantified using a chemiluminescence-based assay (Roche Diagnostics GmbH, Mannheim, Germany).

The target in the next assay is T3, TtgA1 (TtgR-VP16) (Pseudomonas putida, UniProt Q9AIU0).
T3 construct: expressed in transfected cells; host or cells: HT-1080
Put plainly: Phloretin-responsive gene switch (pMG10/pMG11) in HT-1080 exposed to linoleic acid. It counts as cell-based. The conditions noted are these: HT-1080 pMG10/pMG11, 48 h, FIG. 6. As to the method:
HT-1080 were cotransfected with the components encoding the phloretin-responsive gene switch (pMG10, (PTtgR1-SEAP-pA) and pMG11, (PSV40-TtgA1-pA)) and grown for 48 h in the presence of increasing linoleic acid (LA) concentrations before SEAP was profiled in the cell culture supernatant.
as §1, with “Germany). Wild-type Chinese hamster ovary cells (CHO-K1, ATCC: CCL-61) were cultured in ChoMaster® HTS (Cell Culture Technologies GmbH, Gravesano, Switzerland) containing 1% penicillin/streptomycin.” for “Germany).”
as §2

The structures appear in SMILES notation.

On to `CCCCCCCC/C=C\CCCCCCCC(=O)O` [oleic acid], for which the “sensitivity of LSR (SEAP expression)” value in assay [1] is “sensitive”. Turning to `O=C(CCc1ccc(O)cc1)c1c(O)cc(O)cc1O` [phloretin], the “phloretin-triggered effect on fatty acid-induced transgene (SEAP) expression” value in assay [1] (HT-1080 induced by 100 μM linoleic acid, 48 h, FIG. 3c) is “shut down transgene expression”. For the molecule `CCCCCCCCCCCCCCCCCC(=O)O` [stearic acid], in assay [1], the “sensitivity of LSR (SEAP expression)” value was “sensitive”. For the molecule `CCCCCCCCCCCCCCCC(=O)O` [palmitic acid], the “sensitivity of LSR (SEAP expression)” value in assay [1] is reported as “sensitive”. In addition, the SEAP in serum result on LSR sensor device was “significant dose-dependent increase”. Consider `CCCCCCCCCCCC(=O)O` [lauric acid], for which, in assay [1], the “sensitivity of LSR (SEAP expression)” value is on record as “sensitive”.

`CCCCCCCCCCCCCC(=O)O` [myristic acid]: in assay [1], the “sensitivity of LSR (SEAP expression)” value is given as “sensitive”. Regarding `CCCCC/C=C\C/C=C\CCCCCCCC(=O)O` [linoleic acid], the SEAP induction entry in assay [2] was “SEAP was exclusively induced”. On TtgA1 (TtgR-VP16), the “sensitivity of the phloretin-responsive control element (SEAP)” value was “Insensitivity”. The “sensitivity of LSR (SEAP expression)” value in assay [1] is on record as “sensitive”. Moreover, at LSR sensor device, the SEAP in serum result is on record as “significant dose-dependent increase”. Turning to `CCCCC/C=C\C/C=C\C/C=C\C/C=C\CCCC(=O)O` [arachidonic acid], the “sensitivity of LSR (SEAP expression)” value in assay [1] is “sensitive”. On the same count and under the same terms, with `Cc1cccc(Nc2cc(Cl)nc(SCC(=O)O)n2)c1C` [WY-14643] the entry was “sensitive”; with `Cc1ccc(C)c(OCCCC(C)(C)C(=O)O)c1` [gemfibrozil], “sensitive”.
